For one molecule, IC50 results are on record in US20050266509A1, “Interaction of NMDA receptor with protein tyrosine phosphatase” (AGY Therapeutics, Inc., priority 2003, published 2005).

The target of one assay is YOP51 (Yersinia enterocolitica, UniProt P15273). Put plainly: FRET phosphatase assay, YOP51. It is filed as biochemical. As to the method:
For the enzyme activity assay, 2.5 μl of compound, 12.5 μl of enzyme, and 10 μl of substrate (separated by air gaps) are added to columns 3 through 24 by the Biomek FX in a single dispense. After the dispense, the tips are washed with DMSO and water for re-use between each quadrant. Once the assay plates are set up, they are incubated at 27° C. for 45 minutes. Then 20 μl of detection buffer is added to stop the reaction and to allow the Europium antibody (Eu-Ab) and streptavidin-APC to bind to the substrate.
The plates are then placed in the plate reader, an Analyst HT. Excitation light at 360 nm is used to excite the Europium antibody with an emission at 620 nm. Fluorescence resonance energy transfer (FRET) from Eu-Ab to APC will only occur when they are in close proximity. Therefore, when an APC emission is observed at 665 nm the enzyme has been inhibited from removing the phosphate group from the substrate. The FRET assay is time-resolved (TR), where there is a delay between excitation light and collection of emission signals. This reduces the amount of stray light created by short-lived fluorescing molecules. The Analyst HT measures APC and Europium emission signals and calculates the ratio between the two intensities. Typical intensities for the Europium is ˜2000 and APC is ˜600.
The following compounds were tested by FRET against the listed phosphatases, and the IC50 were obtained. […]

For a further assay, the target named is T1, PTPMEG (Homo sapiens, UniProt P29074).
T1 construct: Asp-Ser-6xHis (N); made in house; host or cells: E. coli BL21(DE3)
T1 sequence (P29074 655-911 limits assumed): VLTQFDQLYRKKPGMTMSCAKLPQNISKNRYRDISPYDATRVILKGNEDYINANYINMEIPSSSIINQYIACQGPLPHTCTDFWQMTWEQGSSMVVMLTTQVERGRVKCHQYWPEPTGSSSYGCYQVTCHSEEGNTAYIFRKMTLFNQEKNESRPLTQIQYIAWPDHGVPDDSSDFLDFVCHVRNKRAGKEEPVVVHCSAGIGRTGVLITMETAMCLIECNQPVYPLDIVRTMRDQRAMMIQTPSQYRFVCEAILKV
As to the kind of experiment: TR-FRET phosphatase activity assay, PTPMEG. It is filed as biochemical. The procedure:
Expression and Purification of PTPMEG The DNA sequence encoding the C-terminal 326 residues of PTPMEG (phosphatase domain) was subcloned into the pET-17b vector (Novagen) between the Ndel and Xhol restriction sites. An N-terminal tag consisting of Asp-Ser-6×His was incorporated at the beginning of the protein sequence. Protein expression was performed in BL21(DE3) cells at 37° C. with a 4 hour 0.5 mM IPTG induction. The cells were harvested by centrifugation and stored at −80° C. until needed for protein purification. Protein purification consisted of cell lysis by sonication, immobilized metal affinity chromatography (IMAC) on a Ni^2+-NTA column (Qiagen), followed by hydrophobic interaction chromatography (HIC) on a phenyl sepharose column (Amersham Pharmacia Biotech) and/or ion exchange chromatography (IEC) on a Q sepharose column (Amersham Pharmacia Biotech). The purified 38.3 kDa protein was buffer exchanged into 50 mM HEPES, pH 7.5 and stored at −80° C.
Phosphatase Buffer: 50 mm HEPES, pH 8; 1 mM DDT; 2 mM EDTA; 0.01% Brij solution; 10 mM MgCl2. […]
The plates are then placed in the plate reader, an Analyst HT. […] Fluorescence resonance energy transfer (FRET) from Eu-Ab to APC will only occur when they are in close proximity. […]
On the technique in general: TR-FRET usually uses a lanthanide donor and a delayed reading to cut background.

The structures appear in SMILES notation.

YOP51, sequence (P15273 whole entry): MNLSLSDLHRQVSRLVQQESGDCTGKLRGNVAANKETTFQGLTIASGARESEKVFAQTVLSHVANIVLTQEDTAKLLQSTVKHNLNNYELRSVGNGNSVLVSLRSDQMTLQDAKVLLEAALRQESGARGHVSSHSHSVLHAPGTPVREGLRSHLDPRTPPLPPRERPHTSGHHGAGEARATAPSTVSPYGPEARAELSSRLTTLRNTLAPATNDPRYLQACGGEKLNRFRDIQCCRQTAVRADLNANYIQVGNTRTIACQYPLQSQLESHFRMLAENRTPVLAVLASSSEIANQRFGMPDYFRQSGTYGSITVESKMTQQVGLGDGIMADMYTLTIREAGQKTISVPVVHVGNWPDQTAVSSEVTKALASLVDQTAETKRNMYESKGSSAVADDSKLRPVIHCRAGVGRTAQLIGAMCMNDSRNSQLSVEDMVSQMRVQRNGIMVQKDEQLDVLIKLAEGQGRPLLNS

As usually defined, the IC50 is the concentration needed to halve the response being measured. The low end stands for greater potency in that assay, the high end for weaker potency in that assay. On to `CCOC(=O)C(=CC1=C/C(=C/N(C)C)C(=O)O1)C(=O)OCC` [AGY- 0046293], for which the IC50 stood at 4.18 µM at YOP51 and 0.32 µM against PTPMEG.
